{"source": "BindingDB's records for doi:10.1021/jm000956k", "about": "(Glaxowellcome, 2001)", "key": {"[1]": {"molecular_target": "5-hydroxytryptamine receptor 1D (Bos taurus)", "assay": "Binding affinity against calf caudate 5-hydroxytryptamine 1D receptor"}, "[2]": {"molecular_target": "5-hydroxytryptamine receptor 2A (Oryctolagus cuniculus)", "assay": "Binding affinity against rabbit aorta 5-HT2A receptor"}, "[3]": {"molecular_target": "5-hydroxytryptamine receptor 2C (Cavia porcellus)", "assay": "Binding affinity against guinea pig cortex 5-HT2C receptor in the presence of [3H]mesulergine"}}, "data": [{"smiles": "CN(C)[C@H]1C[C@H](c2c[nH]c3ccc(CC4COC(=O)N4)cc32)C1", "note": "(stereo partly drawn)", "values": [{"measurement": "IC50", "setting": "[1]", "value": 0.089, "unit": "µM"}, {"measurement": "IC50", "setting": "[2]", "value": "> 10", "unit": "µM"}, {"measurement": "IC50", "setting": "[3]", "value": "> 10", "unit": "µM"}]}]}
